Source: patent US10897903B2, “Method for controlling PPO resistant weeds” (BASF SE, priority 2016, dated 2021)

System: w.1 AMATA Amaranthus tamariscinus, common waterhemp, sensitive biotype
Experiment: Greenhouse experiment, weed control of w.1 (Example 3)
Assay type: in vivo
Conditions: for Weed control (%) w.1: greenhouse, sensitive biotype

Structure (SMILES): C#CCN1C(=O)C(F)(F)Oc2cc(F)c(-n3c(=O)n(C)c(=S)n(C)c3=O)cc21 [I.a.35]
- activity in words on sensitive weed w.1 (summary of Example 3 table): very good activity
- Weed control (%) w.1 (use rate 2 g/ha): 99%
- Weed control (%) w.1 (use rate 4 g/ha): 100%
